The values that follow come from US10968217B2, “Tetrahydropyridopyrimidines for the treatment and prophylaxis of hepatitis B virus infection” (Hoffmann-La Roche Inc., priority 2016, dated 2021).

The experiment deals with HBsAg. The experiment in a line: HBsAg assay (CLIA of secreted HBsAg in HepG2.2.15 culture supernatant). The class given is cell-based, HBV. Conditions: Hepatitis B virus, HepG2.2.15, read-out: IC50 (HBsAg assay). Here is the method:
HepG2.2.15 cells (Acs et al. Proc Natl Acad Sci USA, 84, (1987), 4641-4), a constitutively HBV-expressing cell line were cultured in DMEM+Glutamax-I medium (Invitrogen, Carlsbad, Calif., USA), supplemented with 10% fetal bovine serum (Invitrogen) and G418 (Invitrogen) at a final concentration of 200 mg/L and maintained in 5% CO2 at 37° C.
HepG2.2.15 cells were seeded in duplicate into white, 96-well plates at 1.5×10^4 cells/well. The cells were treated with a three-fold serial dilution series of the compounds in DMSO. The final DMSO concentration in all wells was 1% and DMSO was used as no drug control.
The HBsAg chemiluminescence immunoassay (CLIA) kit (Autobio Diagnostics Co., Zhengzhou, China, Catalog number: CL0310-2) was used to measure the levels of secreted HBV antigens semi-quantitatively. For the detection 50 μL/well culture supernatant was used and HBsAg was quantified using HBsAg chemiluminescence immunoassay (CLIA) kit (Autobio Diagnostics Co., Zhengzhou, China, Catalog number: CL0310-2), 50 μL of the supernatant was transferred to the CLIA assay plate and 50 μL of enzyme conjugate reagent was added into each well. The plates were sealed and gently agitated for 1 hour at room temperature. The supernatant-enzyme-mixture was discarded and wells were washed 6 times with 300 μL of PBS. The residual liquid was removed by plating the CLIA plate right side down on absorbent tissue paper. 25 μL of substrates A and B were added to each well. Luminance was measured using a luminometer (Mithras LB 940 Multimode Microplate Reader) after 10 minutes incubation. Dose-response curves were generated and the IC50 value was extrapolated by using the E-WorkBook Suite (ID Business Solutions Ltd., Guildford, UK). The IC50 was defined as the compound concentration at which HBsAg secretion was reduced by 50% compared to the no drug control.
As usually defined, the IC50 is the concentration at which inhibition is half-maximal. `COc1ccc(C(=O)N2CCc3nc(-c4ccccn4)ncc3C2C)cc1OC` (single isomer, unassigned; (-)) [Example 34, (−)-(3,4-Dimethoxyphenyl)-[5-methyl-2-(2-pyridyl)-7,8-dihydro-5H-pyrido[4,3-d]pyrimidin-6-yl]methanone]: the IC50 stood at 1.81 µM.

In the case of `CCC1c2cnc(-c3ccccn3)nc2CCN1C(=O)c1ccc(OC)c(OC)c1` (single isomer, unassigned; (-)) [Example 35, (−)-(3,4-Dimethoxyphenyl)-[5-ethyl-2-(2-pyridyl)-7,8-dihydro-5H-pyrido[4,3-d]pyrimidin-6-yl]methanone], the half-maximal inhibitory concentration (IC50) was 2.72 µM.

For `O=C(c1ccc(C(F)(F)F)cc1)N1CCc2nc(-c3ccccn3)ncc2C1` [Example 1, [2-(2-Pyridyl)-7,8-dihydro-5H-pyrido[4,3-d]pyrimidin-6-yl]-[4-(trifluoromethyl)phenyl]methanone], the IC50 came to 15.7 µM.

Consider `N#Cc1ccc(C(=O)N2CCc3nc(-c4ccccn4)ncc3C2)cc1` [Example 2, 4-[2-(2-Pyridyl)-7,8-dihydro-5H-pyrido[4,3-d]pyrimidine-6-carbonyl]benzonitrile], for which the IC50 came out at 17 µM.

For `O=C(c1ccc([N+](=O)[O-])cc1)N1CCc2nc(-c3ccccn3)ncc2C1` [Example 3, (4-Nitrophenyl)-[2-(2-pyridyl)-7,8-dihydro-5H-pyrido[4,3-d]pyrimidin-6-yl]methanone], the IC50 is 27.3 µM.

Regarding `O=C(c1ccccc1)N1CCc2nc(-c3ccccn3)ncc2C1` [Example 4, Phenyl-[2-(2-pyridyl)-7,8-dihydro-5H-pyrido[4,3-d]pyrimidin-6-yl]methanone], the IC50 worked out at 24.3 µM.

On to `O=C(c1ccc(Cl)cc1)N1CCc2nc(-c3ccccn3)ncc2C1` [Example 5, (4-Chlorophenyl)-[2-(2-pyridyl)-7,8-dihydro-5H-pyrido[4,3-d]pyrimidin-6-yl]methanone], for which the IC50 turned out to be 11.4 µM.

Consider `O=C(c1cccc(C(F)(F)F)c1)N1CCc2nc(-c3ccccn3)ncc2C1` [Example 6, [2-(2-Pyridyl)-7,8-dihydro-5H-pyrido[4,3-d]pyrimidin-6-yl]-[3-(trifluoromethyl)phenyl]methanone], for which the half-maximal inhibitory concentration (IC50) was 18.7 µM.

Consider `COc1ccc(C(=O)N2CCc3nc(-c4ccccn4)ncc3C2)cc1F` [Example 7, (3-Fluoro-4-methoxy-phenyl)-[2-(2-pyridyl)-7,8-dihydro-5H-pyrido[4,3-d]pyrimidin-6-yl]methanone], for which the IC50 was determined as 4.86 µM.

As to `O=C(c1ccc(F)cc1)N1CCc2nc(-c3ccccn3)ncc2C1` [Example 8, (4-Fluorophenyl)-[2-(2-pyridyl)-7,8-dihydro-5H-pyrido[4,3-d]pyrimidin-6-yl]methanone], the IC50 was found to be 16.4 µM.

In the case of `COc1cc(C(=O)N2CCc3nc(-c4ccccn4)ncc3C2)ccc1F` [Example 9, (4-Fluoro-3-methoxy-phenyl)-[2-(2-pyridyl)-7,8-dihydro-5H-pyrido[4,3-d]pyrimidin-6-yl]methanone], the IC50 amounted to 11.5 µM.

As for `O=C(c1ccc(F)c(F)c1)N1CCc2nc(-c3ccccn3)ncc2C1` [Example 10, (3,4-Difluorophenyl)-[2-(2-pyridyl)-7,8-dihydro-5H-pyrido[4,3-d]pyrimidin-6-yl]methanone], the IC50 was 26.2 µM.

Turning to `O=C(c1ccc(F)c(O)c1)N1CCc2nc(-c3ccccn3)ncc2C1` [Example 11, (4-Fluoro-3-hydroxy-phenyl)-[2-(2-pyridyl)-7,8-dihydro-5H-pyrido[4,3-d]pyrimidin-6-yl]methanone], the IC50 turned out to be 21 µM.

For `O=C(c1ccc(O)c(F)c1)N1CCc2nc(-c3ccccn3)ncc2C1` [Example 12, (3-Fluoro-4-hydroxy-phenyl)-[2-(2-pyridyl)-7,8-dihydro-5H-pyrido[4,3-d]pyrimidin-6-yl]methanone], the IC50 stood at 21.4 µM.

Take `CCOc1ccc(C(=O)N2CCc3nc(-c4ccccn4)ncc3C2)cc1F` [Example 13, (4-Ethoxy-3-fluoro-phenyl)-[2-(2-pyridyl)-7,8-dihydro-5H-pyrido[4,3-d]pyrimidin-6-yl]methanone]: the IC50 worked out at 6.56 µM.

As for `COCCOc1ccc(C(=O)N2CCc3nc(-c4ccccn4)ncc3C2)cc1F` [Example 14, [3-Fluoro-4-(2-methoxyethoxy)phenyl]-[2-(2-pyridyl)-7,8-dihydro-5H-pyrido[4,3-d]pyrimidin-6-yl]methanone], the half-maximal inhibitory concentration (IC50) was 20 µM.

As for `COCCCOc1ccc(C(=O)N2CCc3nc(-c4ccccn4)ncc3C2)cc1F` [Example 15, [3-Fluoro-4-(3-methoxypropoxy)phenyl]-[2-(2-pyridyl)-7,8-dihydro-5H-pyrido[4,3-d]pyrimidin-6-yl]methanone], the IC50 was determined as 4.89 µM.

On to `COc1cc(C(=O)N2CCc3nc(-c4ccccn4)ncc3C2)cc(OC)c1OC` [Example 16, [2-(2-Pyridyl)-7,8-dihydro-5H-pyrido[4,3-d]pyrimidin-6-yl]-(3,4,5-trimethoxyphenyl)methanone], for which the IC50 was determined as 8.23 µM.

As to `CCOc1cc(OCC)cc(C(=O)N2CCc3nc(-c4ccccn4)ncc3C2)c1` [Example 17, (3,5-Diethoxyphenyl)-[2-(2-pyridyl)-7,8-dihydro-5H-pyrido[4,3-d]pyrimidin-6-yl]methanone], the IC50 was 7.66 µM.

In the case of `COc1cc(Cl)cc(C(=O)N2CCc3nc(-c4ccccn4)ncc3C2)c1` [Example 18, (3-Chloro-5-methoxy-phenyl)-[2-(2-pyridyl)-7,8-dihydro-5H-pyrido[4,3-d]pyrimidin-6-yl]methanone], the IC50 stood at 10 µM.

Regarding `COc1cc(OC)cc(C(=O)N2CCc3nc(-c4ccccn4)ncc3C2)c1` [Example 19, (3,5-Dimethoxyphenyl)-[2-(2-pyridyl)-7,8-dihydro-5H-pyrido[4,3-d]pyrimidin-6-yl]methanone], the IC50 amounted to 8.99 µM.

Take `Cc1cc(C(=O)N2CCc3nc(-c4ccccn4)ncc3C2)ccc1F` [Example 20, (4-Fluoro-3-methyl-phenyl)-[2-(2-pyridyl)-7,8-dihydro-5H-pyrido[4,3-d]pyrimidin-6-yl]methanone]: the IC50 came out at 7.85 µM.

`COc1ccc(C(=O)N2CCc3nc(-c4ccccn4)ncc3C2)cc1Cl` [Example 21, (3-Chloro-4-methoxy-phenyl)-[2-(2-pyridyl)-7,8-dihydro-5H-pyrido[4,3-d]pyrimidin-6-yl]methanone]: the IC50 turned out to be 5.07 µM.

With `COc1ccc(C(=O)N2CCc3nc(-c4ccccn4)ncc3C2)cc1OC` [Example 22, (3,4-Dimethoxyphenyl)-[2-(2-pyridyl)-7,8-dihydro-5H-pyrido[4,3-d]pyrimidin-6-yl]methanone], the IC50 is 28 µM.

For the compound `O=C(c1ccc(O)c(Cl)c1)N1CCc2nc(-c3ccccn3)ncc2C1` [Example 23, (3-chloro-4-hydroxy-phenyl)-[2-(2-pyridyl)-7,8-dihydro-5H-pyrido[4,3-d]pyrimidin-6-yl]methanone], the IC50 is 21.2 µM.

As for `COCCCOc1ccc(C(=O)N2CCc3nc(-c4ccccn4)ncc3C2)cc1Cl` [Example 24, [3-Chloro-4-(3-methoxypropoxy)phenyl]-[2-(2-pyridyl)-7,8-dihydro-5H-pyrido[4,3-d]pyrimidin-6-yl]methanone], the half-inhibitory concentration (IC50) was found to be 3.18 µM.

Consider `COc1cc(C(=O)N2CCc3nc(-c4ccccn4)ncc3C2)ccc1O` [Example 25, (4-Hydroxy-3-methoxy-phenyl)-[2-(2-pyridyl)-7,8-dihydro-5H-pyrido[4,3-d]pyrimidin-6-yl]methanone], for which the IC50 came to 34.3 µM.
